Reference: ChEMBL document CHEMBL1201862, “PubChem BioAssay data set” (2004)
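How tested: cells in 96-well plates exposed to compound for 48 hours at five concentrations. Here, GI50 denotes the concentration required for 50% inhibition of growth.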 Active and inactive are the calls of the source. Rule as the data show it: active = GI50 up to about 1.1 µM and inactive = higher.

What was measured:
Experiment in all cases: growth of human tumour cells (NCI), 48 h
A498 = test system: A498
BT-549 = test system: BT-549
CCRF-CEM = test system: CCRF-CEM
COLO 205 = test system: COLO 205
EKVX = test system: EKVX
HCT-116 = test system: HCT-116
HT-29 = test system: HT-29
K562 = test system: K562
M14 = test system: M14
MCF7 = test system: MCF7
Malme-3M = test system: Malme-3M
NCI-H522 = test system: NCI-H522
OVCAR-4 = test system: OVCAR-4
SK-MEL-28 = test system: SK-MEL-28
SK-OV-3 = test system: SK-OV-3
SN12C = test system: SN12C
SNB-75 = test system: SNB-75
SW-620 = test system: SW-620
CAKI-1 = test system: CAKI-1
HCC 2998 = test system: HCC 2998

O=C(CC(C(=O)O)N1CCOCC1)c1ccccc1 (centres undefined)
GI50 (A498): 25.1 µM (inactive)
GI50 (BT-549): 18.6 µM (inactive)
GI50 (CCRF-CEM): 3.37 µM (inactive)
GI50 (COLO 205): 21.1 µM (inactive)
GI50 (EKVX): 18.4 µM (inactive)
GI50 (HCT-116): 14 µM (inactive)
GI50 (HT-29): 17.1 µM (inactive)
GI50 (K562): 18.8 µM (inactive)
GI50 (M14): 14.6 µM (inactive)
GI50 (MCF7): 15.7 µM (inactive)
GI50 (Malme-3M): 18.8 µM (inactive)
GI50 (NCI-H522): > 100 µM (inactive)
GI50 (OVCAR-4): 23 µM (inactive)
GI50 (SK-MEL-28): 19.5 µM (inactive)
GI50 (SK-OV-3): 37 µM (inactive)
GI50 (SN12C): 17.8 µM (inactive)
GI50 (SNB-75): 31 µM (inactive)
GI50 (SW-620): 19.8 µM (inactive)

Cc1ccc(S(=O)(=O)OC2CC(C(C)(C)C)CCC2c2ccccc2)cc1 (centres undefined)
GI50 (A498): > 100 µM (inactive)
GI50 (BT-549): > 100 µM (inactive)
GI50 (CAKI-1): 66.1 µM (inactive)
GI50 (COLO 205): > 100 µM (inactive)
GI50 (EKVX): > 100 µM (inactive)
GI50 (HCT-116): 50 µM (inactive)
GI50 (HT-29): 32.1 µM (inactive)
GI50 (K562): 53.5 µM (inactive)
GI50 (M14): 88.7 µM (inactive)
GI50 (MCF7): 35.1 µM (inactive)
GI50 (OVCAR-4): 34.9 µM (inactive)
GI50 (SK-MEL-28): > 100 µM (inactive)
GI50 (SK-OV-3): > 100 µM (inactive)
GI50 (SN12C): > 100 µM (inactive)
GI50 (SNB-75): 27.9 µM (inactive)
GI50 (SW-620): > 100 µM (inactive)

Cn1c2ccccc2c(=NNc2ccc(S(N)(=O)=O)cc2)c2ccccc21
GI50 (BT-549): 8.39 µM (inactive)
GI50 (CAKI-1): 15.7 µM (inactive)
GI50 (CCRF-CEM): 4.58 µM (inactive)
GI50 (COLO 205): 18.7 µM (inactive)
GI50 (EKVX): 12 µM (inactive)
GI50 (HCC 2998): 14.9 µM (inactive)
GI50 (HCT-116): 16.7 µM (inactive)
GI50 (HT-29): 17.6 µM (inactive)
GI50 (K562): 2.49 µM (inactive)
GI50 (M14): 24 µM (inactive)
GI50 (MCF7): 13.6 µM (inactive)
GI50 (Malme-3M): 17.9 µM (inactive)
GI50 (NCI-H522): 11.2 µM (inactive)
GI50 (OVCAR-4): 14.3 µM (inactive)
GI50 (SK-MEL-28): 18.6 µM (inactive)
GI50 (SK-OV-3): 20.2 µM (inactive)
GI50 (SN12C): 18.4 µM (inactive)
GI50 (SNB-75): 15.1 µM (inactive)
GI50 (SW-620): 21.8 µM (inactive)

Cc1ccc(/C=C2\N=C(N3CCOCC3)NC2=O)cc1
GI50 (BT-549): > 100 µM (inactive)
GI50 (CAKI-1): > 100 µM (inactive)
GI50 (CCRF-CEM): > 100 µM (inactive)
GI50 (COLO 205): > 100 µM (inactive)
GI50 (EKVX): > 100 µM (inactive)
GI50 (HCC 2998): > 100 µM (inactive)
GI50 (HCT-116): > 100 µM (inactive)
GI50 (HT-29): > 100 µM (inactive)
GI50 (M14): > 100 µM (inactive)
GI50 (MCF7): > 100 µM (inactive)
GI50 (Malme-3M): > 100 µM (inactive)
GI50 (NCI-H522): > 100 µM (inactive)
GI50 (OVCAR-4): > 100 µM (inactive)
GI50 (SK-MEL-28): > 100 µM (inactive)
GI50 (SK-OV-3): > 100 µM (inactive)
GI50 (SN12C): > 100 µM (inactive)
GI50 (SNB-75): > 100 µM (inactive)
GI50 (SW-620): > 100 µM (inactive)

COc1cc(NS(C)(=O)=O)ccc1NCc1c[nH]c2ccc3nc(C)ccc3c12
GI50 (A498): 20.3 µM (inactive)
GI50 (BT-549): > 100 µM (inactive)
GI50 (CAKI-1): 20.1 µM (inactive)
GI50 (CCRF-CEM): 17.7 µM (inactive)
GI50 (COLO 205): 55 µM (inactive)
GI50 (EKVX): > 100 µM (inactive)
GI50 (HCT-116): 42.9 µM (inactive)
GI50 (HT-29): 49.5 µM (inactive)
GI50 (K562): 0.594 µM (active)
GI50 (M14): 56.1 µM (inactive)
GI50 (MCF7): 36.1 µM (inactive)
GI50 (Malme-3M): > 100 µM (inactive)
GI50 (NCI-H522): 28.4 µM (inactive)
GI50 (OVCAR-4): 44.3 µM (inactive)
GI50 (SK-MEL-28): > 100 µM (inactive)
GI50 (SK-OV-3): 96.4 µM (inactive)
GI50 (SN12C): 60.5 µM (inactive)
GI50 (SNB-75): 22.8 µM (inactive)
GI50 (SW-620): 30.2 µM (inactive)

N#CC(NC12CC3CC(CC(C3)C1)C2)c1ccc2c(c1)OCO2 (centres undefined)
GI50 (BT-549): > 100 µM (inactive)
GI50 (CAKI-1): > 100 µM (inactive)
GI50 (CCRF-CEM): > 100 µM (inactive)
GI50 (COLO 205): > 100 µM (inactive)
GI50 (EKVX): > 100 µM (inactive)
GI50 (HCC 2998): > 100 µM (inactive)
GI50 (HCT-116): > 100 µM (inactive)
GI50 (HT-29): > 100 µM (inactive)
GI50 (K562): > 100 µM (inactive)
GI50 (M14): > 100 µM (inactive)
GI50 (MCF7): > 100 µM (inactive)
GI50 (Malme-3M): > 100 µM (inactive)
GI50 (NCI-H522): > 100 µM (inactive)
GI50 (OVCAR-4): > 100 µM (inactive)
GI50 (SK-MEL-28): > 100 µM (inactive)
GI50 (SK-OV-3): > 100 µM (inactive)
GI50 (SN12C): > 100 µM (inactive)
GI50 (SNB-75): > 100 µM (inactive)
GI50 (SW-620): > 100 µM (inactive)

O=C(NNS(=O)(=O)c1ccc(Br)cc1)c1ccc(Cl)cc1NC(=O)C12CC3CC(CC(C3)C1)C2
GI50 (A498): 15.2 µM (inactive)
GI50 (BT-549): 16.7 µM (inactive)
GI50 (CAKI-1): 17 µM (inactive)
GI50 (CCRF-CEM): 14.6 µM (inactive)
GI50 (COLO 205): 12 µM (inactive)
GI50 (EKVX): 11.3 µM (inactive)
GI50 (HCT-116): 21.2 µM (inactive)
GI50 (HT-29): 11.8 µM (inactive)
GI50 (K562): 6.34 µM (inactive)
GI50 (M14): 15 µM (inactive)
GI50 (MCF7): 11.7 µM (inactive)
GI50 (Malme-3M): 14.8 µM (inactive)
GI50 (NCI-H522): 12.4 µM (inactive)
GI50 (OVCAR-4): 10.6 µM (inactive)
GI50 (SK-OV-3): 16.4 µM (inactive)
GI50 (SN12C): 18.9 µM (inactive)
GI50 (SNB-75): 14.2 µM (inactive)
GI50 (SW-620): 19.5 µM (inactive)

N#CCc1nc(-c2cc3c(ccc4ccccc43)oc2=O)cs1
GI50 (BT-549): 17.1 µM (inactive)
GI50 (CAKI-1): 50.1 µM (inactive)
GI50 (CCRF-CEM): > 100 µM (inactive)
GI50 (COLO 205): > 100 µM (inactive)
GI50 (EKVX): 20.3 µM (inactive)
GI50 (HCC 2998): 69.3 µM (inactive)
GI50 (HCT-116): 54.3 µM (inactive)
GI50 (HT-29): 73.1 µM (inactive)
GI50 (K562): > 100 µM (inactive)
GI50 (M14): 99.1 µM (inactive)
GI50 (MCF7): 38.3 µM (inactive)
GI50 (Malme-3M): > 100 µM (inactive)
GI50 (NCI-H522): 13 µM (inactive)
GI50 (OVCAR-4): 24.3 µM (inactive)
GI50 (SK-MEL-28): 72.6 µM (inactive)
GI50 (SK-OV-3): 30.3 µM (inactive)
GI50 (SN12C): 57.8 µM (inactive)
GI50 (SNB-75): 0.507 µM (active)
GI50 (SW-620): 91.8 µM (inactive)

O=C1NC(N2CCCCC2)=N/C1=C\c1ccco1
GI50 (BT-549): > 100 µM (inactive)
GI50 (CAKI-1): > 100 µM (inactive)
GI50 (CCRF-CEM): > 100 µM (inactive)
GI50 (COLO 205): > 100 µM (inactive)
GI50 (EKVX): 78.2 µM (inactive)
GI50 (HCC 2998): > 100 µM (inactive)
GI50 (HCT-116): > 100 µM (inactive)
GI50 (HT-29): 30.3 µM (inactive)
GI50 (M14): > 100 µM (inactive)
GI50 (MCF7): > 100 µM (inactive)
GI50 (Malme-3M): > 100 µM (inactive)
GI50 (NCI-H522): > 100 µM (inactive)
GI50 (OVCAR-4): > 100 µM (inactive)
GI50 (SK-MEL-28): > 100 µM (inactive)
GI50 (SK-OV-3): > 100 µM (inactive)
GI50 (SN12C): > 100 µM (inactive)
GI50 (SW-620): > 100 µM (inactive)

Cc1cc(/N=C/c2ccc(C#N)cc2)n(-c2ccccc2)n1
GI50 (BT-549): 93.3 µM (inactive)
GI50 (CAKI-1): > 100 µM (inactive)
GI50 (CCRF-CEM): 30.8 µM (inactive)
GI50 (COLO 205): 31.3 µM (inactive)
GI50 (EKVX): 94.8 µM (inactive)
GI50 (HCC 2998): > 100 µM (inactive)
GI50 (HCT-116): 49.1 µM (inactive)
GI50 (HT-29): 47.8 µM (inactive)
GI50 (K562): 26.5 µM (inactive)
GI50 (M14): 55.7 µM (inactive)
GI50 (MCF7): 41.1 µM (inactive)
GI50 (Malme-3M): > 100 µM (inactive)
GI50 (NCI-H522): 72.4 µM (inactive)
GI50 (OVCAR-4): > 100 µM (inactive)
GI50 (SK-MEL-28): > 100 µM (inactive)
GI50 (SK-OV-3): 51.3 µM (inactive)
GI50 (SN12C): 82.2 µM (inactive)
GI50 (SNB-75): 57 µM (inactive)
GI50 (SW-620): 49.4 µM (inactive)

O=C1Cc2c([nH]c3c(Cl)cccc23)-c2ccccc2N1
GI50 (A498): > 100 µM (inactive)
GI50 (BT-549): > 100 µM (inactive)
GI50 (CCRF-CEM): > 100 µM (inactive)
GI50 (COLO 205): > 100 µM (inactive)
GI50 (HCT-116): > 100 µM (inactive)
GI50 (HT-29): > 100 µM (inactive)
GI50 (K562): > 100 µM (inactive)
GI50 (M14): > 100 µM (inactive)
GI50 (MCF7): > 100 µM (inactive)
GI50 (Malme-3M): > 100 µM (inactive)
GI50 (NCI-H522): > 100 µM (inactive)
GI50 (OVCAR-4): > 100 µM (inactive)
GI50 (SK-MEL-28): > 100 µM (inactive)
GI50 (SK-OV-3): > 100 µM (inactive)
GI50 (SN12C): > 100 µM (inactive)
GI50 (SNB-75): > 100 µM (inactive)
GI50 (SW-620): > 100 µM (inactive)
